Experimental data reported in patent publication US20100150948A1, “MATERIALS AND METHODS FOR IMPROVED IMMUNOGLYCOPROTEINS” (TRUBION PHARMACEUTICALS, INC., priority 2006, published 2010).

Key:
[1] = tested on: CHO cells expressing TRU-016; assay: Culturing CHO host cells with carbohydrate modifier: cell growth and viability; type: cell-based, Chinese hamster; conditions: castanospermine up to 1000 μM, all time periods up to 144 hours
Method: For shake flask runs, log phase host cells were seeded in shake flasks at 100,000 cells/ml with carbohydrate modifier at the concentration to be tested, and optionally with methotrexate (MTX) @ 50 nM
Cells were seeded at 3×10E6/mL in 1350 mL of Ex-Cell 302 culture media (SATC Biosciences; with added non-essential amino acids, pyrucate, L-glutamine, pen/strep, HT Supplement and insulin, all from Invitrogen) at t=0 and brought to 5 L total volume at T>=72 hours. The cells were incubated at 37° C. and 5% carbon dioxide and monitored for growth and viability daily starting at day 6-7. Supernatants were typically harvested at day 10-12 when cell viability dropped below 60%.
Na-Azide was added to 0.02%, cells were removed by centrifugation and supernatant was filter sterilized through a 0.22 uM filter. Some assays described in other examples herein were performed on the supernatants as indicated, while other assays were performed on material that underwent further protein A purification. […] Cells were incubated at 37° C. and 5% carbon dioxide and monitored daily for growth and viability. […]

[2] = molecular target: T1, CD37 cell surface receptor (Homo sapiens, UniProt P11049); assay: Binding of TRU-016 to B and non-B lymphocytes of human PBMC, two-color flow cytometry
T1 construct: Human PBMCs are isolated over LSM density gradients; endogenous in cells; host or cells: human PBMC
T1 sequence (P11049 1-281): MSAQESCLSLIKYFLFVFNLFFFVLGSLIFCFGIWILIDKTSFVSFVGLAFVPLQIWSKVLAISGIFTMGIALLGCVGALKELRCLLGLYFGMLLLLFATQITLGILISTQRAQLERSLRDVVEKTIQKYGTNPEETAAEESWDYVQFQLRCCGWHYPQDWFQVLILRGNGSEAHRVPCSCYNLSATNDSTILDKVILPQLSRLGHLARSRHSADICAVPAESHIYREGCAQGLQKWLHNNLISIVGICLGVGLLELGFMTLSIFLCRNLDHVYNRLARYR
Method: Experiments may be performed to confirm that the binding specificity of the parent antibody to the CD37 cell surface receptor is preserved in TRU-016. Human PBMCs are isolated over LSM density gradients and incubated with unconjugated TRU-016 and PE-conjugated anti-human CD19. Cells are washed and incubated with 1:100 FITC GAH IgG (Fc specific) for 45 minutes on ice. Cells are washed and analyzed by two-color flow cytometry on a FACsCalibur instrument using Cell Quest software. Cells are gated for B lymphocytes or non-B lymphocytes by CD19 staining.

[3] = tested on: CD37-expressing Daudi cancer B-cell line; assay: Antibody Dependent Cellular Cytotoxicity (ADCC) assay, 51Cr release, PBL effector cells; type: cell-based, human; conditions: TRU-016 treated with CS over a range of 100 μM-800 μM final concentration
Method: TRU-016 produced as described in Example 8 is incubated with the CD37-expressing Daudi cancer B-cell line in conjunction with primary human peripheral blood lymphocytes (PBL's) effector cells to assess ADCC activity.
Daudi target cells (5×10̂6) are added to a 15 ml conical tube and then centrifuged at 250×g for 5 minutes at 20° C. and the supernatant removed. The cell pellet is resuspended by the addition of 0.3 mCi Chromium-51 (^51Cr, GE Healthcare, CJ51). The cells are incubated for 75 minutes at 37° C. with 5% CO2, allowing the cells to incorporate the radioactive isotope. The cells are then washed three times to remove any unincorporated ^51Cr. This is done by adding 10 mL of complete media—IMDM (Gibco) with 10% FBS (Gibco)—to the tube, centrifuging at 250×g for 5 minutes at 20° C. followed by removal of supernatant. The final resuspension is in 11.5 mL of complete media. TRU-016 is diluted in complete media, at concentrations that are able to generate maximal to background levels of cell lysis (500 ng/mL-0.005 ng/mL). These titrations are plated out, 50 μL/well, in a round bottom 96 well plate. The ^51Cr labeled target cells are added to the dose titrations of TRU-016 at 50 μL/well and the control wells (control media without TRU-016). PBL's are isolated from fresh heparinized whole blood by density gradient centrifugation using Lymphocyte Separation Media as per protocol (LSM, MP Biomedical, 50494/36427). […] The assay is incubated for 4.5-5 hours at 37° C., 5% CO2. The effector cells lyse the target cells relative to the TRU-016 concentration, releasing a proportional amount of ^51Cr into the assay supernatant. Following the incubation the plate is centrifuged at 250×g for 3 minutes at 20° C. A 25 μL volume of cell-free supernatant is removed from all wells to a scintillation plate (Perkin Elmer 6005185) and dried overnight. The amount of ^51Cr isotope in each well of the scintillation plate is measured using a Topcount plate reader (Perkin Elmer, C9904V0). The data are expressed as percent of specific release. Specific release is calculated as:
(Sample value−Spontaneous value)/(Maximum value−Spontaneous value)*100% • Spontaneous=amount of ^51Cr released from target cell only • Maximum release=amount of ^51Cr released from targets treated with detergent lysing agent • Background Control=amount of ^51Cr released from target cells+effector cells (No TRU-016)
A dose response is generated and fit to a 4-parameter logistic curve using SoftMax Pro software (Molecular Devices, ver 5.0.1). Titrations of TRU-016 are utilized to create dose response curves of test and reference material for comparison. The EC50 values for the treated articles are compared to the untreated control (no CS) to determine the percent increase in ADCC activity.

Row | Molecule | cell counts [1] | percent cell viability [1] | TRU-016 concentration at saturation of FITC signal on the B lymphocyte (CD19 positive gate) ([2]; CD19 positive gate) | mean fluorescence intensity (MFI) at saturation ([2]; CD19 positive gate) | staining of the non-B lymphocyte population ([2]; non-B lymphocyte gate) | ADCC activity relative to untreated TRU-016 [3]
1 | O[C@H]1[C@H](O)[C@@H](O)CN2CC[C@H](O)[C@H]12 [castanospermine] | did not affect | did not affect |  |  |  | 
2 | TRU-016: recombinant single chain protein (SMIP) that binds CD37; G28-1 binding domain, modified hinge, human IgG1 CH2 and CH3; SEQ ID NO: 2 |  |  | approximately 1 μg/mL | ~1000 | detectable, but very low | significantly increased
